Patent US20090111778A1, “2-Keto-Oxazoles as Modulators of Fatty Acid Amide Hydrolase” (priority 2005, published 2009)
pIC50: −log10 of the molar value.

What was measured:
rat FAAH = biological target: T1, rat FAAH (Rattus norvegicus, UniProt P97612); test: Assay Method 2: FAAH assay, hydrolysis of 3H-anandamide by homogenate of SK-N-MC cells transfected with rat FAAH; format: biochemical; details: T84 or transfected SK-N-MC cell homogenate, 3H-AEA tracer 80 nM, rt 1 h, pH 9
T1 construct: expressed in transfected cells
T1 sequence (P97612 1-579): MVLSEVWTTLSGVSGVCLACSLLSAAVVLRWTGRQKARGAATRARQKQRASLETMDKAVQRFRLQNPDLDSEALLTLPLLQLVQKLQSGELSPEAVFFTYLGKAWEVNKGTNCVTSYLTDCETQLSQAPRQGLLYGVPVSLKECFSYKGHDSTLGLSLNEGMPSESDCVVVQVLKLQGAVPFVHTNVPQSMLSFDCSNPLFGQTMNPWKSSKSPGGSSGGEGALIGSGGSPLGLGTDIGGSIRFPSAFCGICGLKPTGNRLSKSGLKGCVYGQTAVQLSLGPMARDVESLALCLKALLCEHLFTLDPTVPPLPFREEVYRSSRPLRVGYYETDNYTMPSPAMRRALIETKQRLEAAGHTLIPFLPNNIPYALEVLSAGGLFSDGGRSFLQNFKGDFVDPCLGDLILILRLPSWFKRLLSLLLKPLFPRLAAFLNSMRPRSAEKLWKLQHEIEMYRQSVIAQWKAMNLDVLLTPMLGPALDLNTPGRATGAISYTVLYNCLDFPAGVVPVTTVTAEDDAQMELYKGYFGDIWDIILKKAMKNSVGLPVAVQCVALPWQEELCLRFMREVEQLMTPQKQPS
Method: A. Transfection of Cells with Rat FAAH A 10-cm tissue culture dish with a confluent monolayer of SK-N-MC cells was split 2 days (d) prior to transfection. Using sterile technique, the media was removed and the cells were detached from the dish by the addition of trypsin. One fifth of the cells were then placed onto a new 10-cm dish. Cells were grown in a 37° C. incubator with 5% CO2 in Minimal Essential Media Eagle with 10% Fetal Bovine Serum. After 2 d, cells were approximately 80% confluent. These cells were removed from the dish with trypsin and pelleted in a clinical centrifuge. The pellet was re-suspended in 400 μL complete media and transferred to an electroporation cuvette with a 0.4 cm gap between the electrodes. Supercoiled rat FAAH cDNA (1 μg) was added to the cells and mixed. The voltage for the electroporation was set at 0.25 kV, and the capacitance was set at 960 μF. After electroporation, the cells were diluted into complete media (10 mL) and plated onto four 10-cm dishes. Because of the variability in the efficiency of electroporation, four different concentrations of cells were plated. The ratios used were 1:20, 1:10, and 1:5, with the remainder of the cells being added to the fourth dish. The cells were allowed to recover for 24 h before adding the selection media (complete media with 600 μg/mL G418). After 10 d, dishes were analyzed for surviving colonies of cells. Dishes with well-isolated colonies were used. Cells from individual colonies were isolated and tested. […] B. FAAH Assay […] The reaction mixture was incubated at rt for 1 h. During the incubation, 96-well Multiscreen filter plates (catalog number MAFCNOB50; Millipore, Bedford, Mass., USA) were loaded with 25 μL of activated charcoal (Multiscreen column loader, catalog number MACL09625, Millipore) and washed once with 100 μL of MeOH. Also during the incubation, 96-well DYNEX MicroLite plates (catalog number NL510410) were loaded with 100 μL of MicroScint40 (catalog number 6013641, Packard Bioscience, Meriden, Conn., USA). After the 1 h incubation, 60 μL of the reaction mixture were transferred to the charcoal plates, which were then assembled on top of the DYNEX plates using Centrifuge Alignment Frames (catalog number MACF09604, Millipore). The unbound labeled ethanolamine was centrifuged through to the bottom plate (5 min at 2000 rpm), which was preloaded with the scintillant, as described above. The plates were sealed and left at rt for 1 h before counting on a Hewlett Packard TopCount.

human FAAH = biological target: T2, human FAAH (Homo sapiens, UniProt O00519); test: Assay Method 1: FAAH assay, hydrolysis of 3H-anandamide by homogenate of SK-N-MC cells transfected with human FAAH; format: biochemical; details: human FAAH; T84 or transfected SK-N-MC cell homogenate; 3H-AEA tracer 80 nM; rt 1 h; pH 9; read-out: Assay 1 IC50
T2 construct: expressed in transfected cells
T2 sequence (O00519 1-579): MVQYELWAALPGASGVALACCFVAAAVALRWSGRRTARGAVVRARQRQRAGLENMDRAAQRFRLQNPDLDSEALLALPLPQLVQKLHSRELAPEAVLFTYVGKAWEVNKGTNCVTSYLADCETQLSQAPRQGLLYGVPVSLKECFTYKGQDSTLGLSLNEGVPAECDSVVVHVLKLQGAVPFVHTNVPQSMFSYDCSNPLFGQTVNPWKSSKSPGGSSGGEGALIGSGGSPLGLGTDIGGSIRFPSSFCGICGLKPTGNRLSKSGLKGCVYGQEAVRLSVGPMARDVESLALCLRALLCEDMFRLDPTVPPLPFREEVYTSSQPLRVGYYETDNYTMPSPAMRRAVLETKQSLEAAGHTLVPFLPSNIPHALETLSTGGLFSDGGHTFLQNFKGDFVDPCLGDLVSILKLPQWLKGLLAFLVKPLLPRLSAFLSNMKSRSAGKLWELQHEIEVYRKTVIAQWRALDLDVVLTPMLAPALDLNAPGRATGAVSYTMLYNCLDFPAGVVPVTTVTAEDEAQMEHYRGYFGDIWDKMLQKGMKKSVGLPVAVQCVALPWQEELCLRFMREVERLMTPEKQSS
Method: A. Transfection of Cells with Human FAAH
A 10-cm tissue culture dish with a confluent monolayer of SK-N-MC cells was split 2 days (d) prior to transfection. Using sterile technique, the media was removed and the cells were detached from the dish by the addition of trypsin. One fifth of the cells were then placed onto a new 10-cm dish. Cells were grown in a 37° C. incubator with 5% CO2 in Minimal Essential Media Eagle with 10% Fetal Bovine Serum. After 2 d, cells were approximately 80% confluent. These cells were removed from the dish with trypsin and pelleted in a clinical centrifuge. The pellet was re-suspended in 400 μL complete media and transferred to an electroporation cuvette with a 0.4 cm gap between the electrodes. Supercoiled human FAAH cDNA (1 μg) was added to the cells and mixed. The voltage for the electroporation was set at 0.25 kV, and the capacitance was set at 960 μF. After electroporation, the cells were diluted into complete media (10 mL) and plated onto four 10-cm dishes. Because of the variability in the efficiency of electroporation, four different concentrations of cells were plated. The ratios used were 1:20, 1:10, and 1:5, with the remainder of the cells being added to the fourth dish. The cells were allowed to recover for 24 h before adding the selection media (complete media with 600 μg/mL G418). After 10 d, dishes were analyzed for surviving colonies of cells. Dishes with well-isolated colonies were used. Cells from individual colonies were isolated and tested.
The assay mixture consisted of […] of the cell homogenate, 10 μL of the test compound, and 40 μL of anandamide [1-^3H-ethanolamine] (3H-AEA, Perkin-Elmer, 10.3 Ci/mmol), which was added last, for a final tracer concentration of 80 nM. The reaction mixture was incubated at rt for 1 h. During the incubation, 96-well Multiscreen filter plates (catalog number MAFCNOB50; Millipore, Bedford, Mass., USA) were loaded with 25 μL of activated charcoal (Multiscreen column loader, catalog number MACL09625, Millipore) and washed once with 100 μL of MeOH. Also during the incubation, 96-well DYNEX MicroLite plates (catalog number NL510410) were loaded with 100 μL of MicroScint40 (catalog number 6013641, Packard Bioscience, Meriden, Conn., USA). After the 1 h incubation, 60 μL of the reaction mixture were transferred to the charcoal plates, which were then assembled on top of the DYNEX plates using Centrifuge Alignment Frames (catalog number MACF09604, Millipore). The unbound labeled ethanolamine was centrifuged through to the bottom plate (5 min at 2000 rpm), which was preloaded with the scintillant, as described above. The plates were sealed and left at rt for 1 h before counting on a Hewlett Packard TopCount.

Row | pIC50 (rat FAAH) | pIC50 (human FAAH) | Structure (SMILES)
1 | 6.54 | 6.97 | O=C(CCCC1CCN(C(=O)C2CCCC2)CC1)c1ncco1 [Example 31, 4-(1-Cyclopentanecarbonyl-piperidin-4-yl)-1-oxazol-2-yl-butan-1-one]
2 | 6.46 | 7.00 | O=C(CCCC1CCN(Cc2cccc(F)c2)CC1)c1ncco1 [Example 8, 4-[1-(3-Fluoro-benzyl)-piperidin-4-yl]-1-oxazol-2-yl-butan-1-one]
3 | 8.00 | 7.40 | Cc1ccc(CCC(=O)N2CCC(CCCC(=O)c3ncco3)CC2)cc1 [Example 44, 1-Oxazol-2-yl-4-[1-(3-p-tolyl-propionyl)-piperidin-4-yl]-butan-1-one]
4 | 6.15 | 6.19 | O=C(CCCC1CCN(C(=O)Cc2cccc(Cl)c2)CC1)c1ncco1 [Example 41, 4-{1-[2-(3-Chloro-phenyl)-acetyl]-piperidin-4-yl}-1-oxazol-2-yl-butan-1-one]
5 | 7.12 | 7.37 | O=C(CCCC1CCN(C(=O)Cc2ccc(Cl)cc2)CC1)c1ncco1 [Example 40, 4-{1-[2-(4-Chloro-phenyl)-acetyl]-piperidin-4-yl}1-oxazol-2-yl-butan-1-one]
6 | 6.60 | 6.97 | O=C(CCCC1CCN(Cc2ccc(N3CCCCC3)cc2)CC1)c1ncco1 [Example 103, 1-Oxazol-2-yl-4-[1-(4-piperidin-1-yl-benzyl)-piperidin-4-yl]-butan-1-one]
7 | 6.30 | 7.01 | O=C(CCCC1CCN(Cc2cncc(Br)c2)CC1)c1ncco1 [Example 78, 4-[1-(5-Bromo-pyridin-3-ylmethyl)-piperidin-4-yl]-1-oxazol-2-yl-butan-1-one]
8 | 7.74 | 7.66 | O=C(CCCC1CCN(C(=O)CCc2ccc(Oc3ccccc3)cc2)CC1)c1ncco1 [Example 37, 1-Oxazol-2-yl-4-{1-[3-(4-phenoxy-phenyl)-propionyl]-piperidin-4-yl}-butan-1-one]
9 | 6.19 | 6.40 | O=C(CCCC1CCN(Cc2ccc(Br)nc2)CC1)c1ncco1 [Example 76, 4-[1-(6-Bromo-pyridin-3-ylmethyl)-piperidin-4-yl]-1-oxazol-2-yl-butan-1-one]
10 | 6.00 | 6.70 | O=C(CCCC1CCN(Cc2cccc(F)c2F)CC1)c1ncco1 [Example 81, 4-[1-(2,3-Difluoro-benzyl)-piperidin-4-yl]-1-oxazol-2-yl-butan-1-one]
11 | 8.70 | 9.00 | O=C(CCCC1CCN(Cc2cccc(OC3CCCCC3)c2)CC1)c1ncco1 [Example 136, 4-[1-(3-Cyclohexyloxy-benzyl)-piperidin-4-yl]-1-oxazol-2-yl-butan-1-one]
12 | 7.72 | 8.15 | CCCOC(=O)N1CCC(CCCC(=O)c2ncco2)CC1 [Example 70, 4-(4-Oxazol-2-yl-4-oxo-butyl)-piperidine-1-carboxylic acid propyl ester]
13 | 6.00 | 6.22 | O=C(CCCC1CCN(Cc2ccc(Cl)nc2)CC1)c1ncco1 [Example 75, 4-[1-(6-Chloro-pyridin-3-ylmethyl)-piperidin-4-yl]-1-oxazol-2-yl-butan-1-one]
14 | 8.70 | 9.15 | O=C(CCCC1CCN(C(=O)OCCOCc2ccccc2)CC1)c1ncco1 [Example 66, 4-(4-Oxazol-2-yl-4-oxo-butyl)-piperidine-1-carboxylic acid 2-benzyloxy-ethyl ester]
15 | 6.54 | 7.22 | O=C(CCCC1CCN(Cc2ccc3ccccc3n2)CC1)c1ncco1 [Example 92, 1-Oxazol-2-yl-4-(1-quinolin-2-ylmethyl-piperidin-4-yl)-butan-1-one]
16 | 7.15 | 7.30 | O=C(CCCC1CCN(Cc2ccc(Cl)c(Cl)c2)CC1)c1ncco1 [Example 12, 4-[1-(3,4-Dichloro-benzyl)-piperidin-4-yl]-1-oxazol-2-yl-butan-1-one]
17 | 6.71 | 7.82 | O=C(CCCC1CCN(Cc2ccc(-c3ccsc3)nc2)CC1)c1ncco1 [Example 111, 1-Oxazol-2-yl-4-[1-(6-thiophen-3-yl-pyridin-3-ylmethyl)-piperidin-4-yl]-butan-1-one]

Row | Structure (SMILES) | pIC50 (rat FAAH) | pIC50 (human FAAH)
18 | O=C(CCCC1CCN(Cc2ccc(Cl)cc2)CC1)c1ncco1 [Example 9, 4-[1-(4-Chloro-benzyl)-piperidin-4-yl]-1-oxazol-2-yl-butan-1-one] | 6.45 | 7.18
19 | O=C(CCCC1CCN(Cc2cccc(Br)c2)CC1)c1ncco1 [Example 90, 4-[1-(3-Bromo-benzyl)-piperidin-4-yl]-1-oxazol-2-yl-butan-1-one] | 6.93 | 8.00
20 | O=C(CCCC1CCN(S(=O)(=O)CCc2ccccc2)CC1)c1ncco1 [Example 54, 1-Oxazol-2-yl-4-[1-(2-phenyl-ethanesulfonyl)-piperidin-4-yl]-butan-1-one] | 6.90 | 8.22
